From patent US8524755B2 (priority 2009, dated 2013)

Tests used:
Adenosine A2A (h) = target: T1, Adenosine A2A (h) (Homo sapiens, UniProt P29274); test: Binding A2A (h) (ag); conditions: read-out: % Inhibition of Control Specific Binding @ 10 μM
T1 construct: expressed in transfected cells; host or cells: HEK-293 cells
Method: (§1) Radioligand binding assay methods utilized to measure the activity of compounds of the invention will be familiar to those skilled in the art. In each assay case, the assay components such as, for example, the cell-type, ligand, reference compound and the like, will be familiar to practitioners of such an assay.
(§2) Analysis and Expression of Results: Compounds of the invention were tested in the biochemical assays and percent inhibition of specific binding was determined. The specific ligand binding to the receptors is defined as the difference between the total binding and the nonspecific binding determined in the presence of an excess of unlabelled ligand. The results are expressed as a percent inhibition of control specific binding (100−((measured specific binding/control specific binding)×100)) obtained in the presence of test compounds.

Angiotensin AT2 (h) = target: T2, Angiotensin AT2 (h) (Homo sapiens, UniProt P50052); test: Binding AT2 (h); conditions: AT2 (h) (aa), read-out: % Inhibition of Control Specific Binding @ 10 μM
T2 construct: expressed in transfected cells; host or cells: CHO cells
T2 sequence (P50052 1-363): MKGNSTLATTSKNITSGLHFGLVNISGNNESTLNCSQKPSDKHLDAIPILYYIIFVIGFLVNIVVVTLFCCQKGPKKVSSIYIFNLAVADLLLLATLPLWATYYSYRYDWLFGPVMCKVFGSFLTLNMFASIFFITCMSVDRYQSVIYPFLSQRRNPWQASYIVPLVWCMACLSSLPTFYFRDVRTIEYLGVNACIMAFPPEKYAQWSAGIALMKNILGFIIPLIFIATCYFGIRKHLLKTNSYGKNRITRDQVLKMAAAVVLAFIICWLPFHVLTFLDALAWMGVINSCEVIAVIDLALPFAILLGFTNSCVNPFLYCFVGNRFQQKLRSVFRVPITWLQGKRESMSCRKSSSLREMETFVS
Method: as §1, §2

Cannabinoid CB2 (h) = target: T3, Cannabinoid CB2 (h) (Homo sapiens, UniProt P34972); test: Binding CB2 (h) (ag); conditions: read-out: % Inhibition of Control Specific Binding @ 10 μM
T3 construct: expressed in transfected cells; host or cells: CHO cells
Method: as §1, §2

σ (ns) = test: Binding σ (ns) (ag); set-up: species or system rat
Method: as §1, §2

Estrogen ER (ns) (h) = target: T4, Estrogen ER (ns) (h) (Homo sapiens, UniProt P03372); test: Binding ER (ns) (h) (ag); conditions: read-out: % Inhibition of Control Specific Binding @ 10 μM
T4 construct: MCF-7 cells (cytosol); endogenous in cells; host or cells: MCF-7 cells (cytosol)
Method: as §1, §2

PDE1B (h) = target: T5, PDE1B (h) (Homo sapiens, UniProt Q01064); test: Enzyme assay PDE1B (h); type: biochemical; conditions: read-out: % Inhibition of Control Values @ 10 μM
T5 construct: host or cells: Sf9 cells
Excerpt: (§3) The enzyme assays provided below will be familiar to those skilled in the art.
(§4) Analysis and Expression of Results: The results are expressed as a percent of control specific activity ((measured specific activity/control specific activity)×100) obtained in the presence of the test compounds.

PDE5 (h) (ns) = test: Enzyme assay PDE5 (h) (ns); type: biochemical, human
Excerpt: as §3, §4

[1] = target: T6, human GABAA α1β3γ2 receptor (Homo sapiens, UniProt P14867+P18507+P28472); test: GABAA Functional Assay, α1β3γ2, Xenopus oocytes; type: cell-based
T6 construct: expressed in transfected cells; host or cells: Xenopus laevis oocytes, cDNA injection
T6 sequence (P14867 28-456): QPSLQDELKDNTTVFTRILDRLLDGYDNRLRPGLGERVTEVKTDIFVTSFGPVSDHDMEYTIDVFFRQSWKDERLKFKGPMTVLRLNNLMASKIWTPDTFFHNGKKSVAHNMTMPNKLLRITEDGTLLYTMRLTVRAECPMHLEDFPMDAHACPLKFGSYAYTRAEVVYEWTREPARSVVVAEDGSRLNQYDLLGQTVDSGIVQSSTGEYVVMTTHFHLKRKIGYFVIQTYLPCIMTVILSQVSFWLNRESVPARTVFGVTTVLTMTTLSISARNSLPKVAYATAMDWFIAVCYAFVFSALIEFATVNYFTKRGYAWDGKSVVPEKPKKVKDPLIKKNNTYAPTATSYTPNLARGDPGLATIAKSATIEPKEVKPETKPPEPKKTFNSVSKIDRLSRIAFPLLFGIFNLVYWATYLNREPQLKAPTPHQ
T6 sequence (P28472 26-473): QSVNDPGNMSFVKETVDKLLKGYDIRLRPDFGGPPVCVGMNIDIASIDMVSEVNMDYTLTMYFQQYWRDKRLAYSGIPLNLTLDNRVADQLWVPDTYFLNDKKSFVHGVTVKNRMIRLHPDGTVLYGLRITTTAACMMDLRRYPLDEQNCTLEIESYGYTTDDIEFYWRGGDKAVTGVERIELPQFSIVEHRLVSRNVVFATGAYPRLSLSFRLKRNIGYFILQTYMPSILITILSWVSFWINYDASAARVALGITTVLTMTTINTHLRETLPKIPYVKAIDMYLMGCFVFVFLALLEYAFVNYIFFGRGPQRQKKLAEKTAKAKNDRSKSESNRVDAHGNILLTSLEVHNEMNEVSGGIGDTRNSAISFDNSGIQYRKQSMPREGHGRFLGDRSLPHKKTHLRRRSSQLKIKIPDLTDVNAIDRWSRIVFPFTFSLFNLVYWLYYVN
T6 sequence (P18507 40-475): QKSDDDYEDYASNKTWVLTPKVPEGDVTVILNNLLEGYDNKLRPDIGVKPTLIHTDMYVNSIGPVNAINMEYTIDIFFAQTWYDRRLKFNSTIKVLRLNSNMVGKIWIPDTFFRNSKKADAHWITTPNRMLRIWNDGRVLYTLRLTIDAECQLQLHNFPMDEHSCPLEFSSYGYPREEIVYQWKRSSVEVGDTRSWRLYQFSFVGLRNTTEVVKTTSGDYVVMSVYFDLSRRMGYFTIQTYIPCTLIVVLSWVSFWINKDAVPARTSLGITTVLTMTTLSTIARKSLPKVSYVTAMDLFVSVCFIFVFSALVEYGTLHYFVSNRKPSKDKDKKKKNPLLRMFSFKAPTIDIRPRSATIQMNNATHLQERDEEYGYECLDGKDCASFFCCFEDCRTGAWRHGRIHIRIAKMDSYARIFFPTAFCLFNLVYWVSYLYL

T4 sequence (P03372 whole entry): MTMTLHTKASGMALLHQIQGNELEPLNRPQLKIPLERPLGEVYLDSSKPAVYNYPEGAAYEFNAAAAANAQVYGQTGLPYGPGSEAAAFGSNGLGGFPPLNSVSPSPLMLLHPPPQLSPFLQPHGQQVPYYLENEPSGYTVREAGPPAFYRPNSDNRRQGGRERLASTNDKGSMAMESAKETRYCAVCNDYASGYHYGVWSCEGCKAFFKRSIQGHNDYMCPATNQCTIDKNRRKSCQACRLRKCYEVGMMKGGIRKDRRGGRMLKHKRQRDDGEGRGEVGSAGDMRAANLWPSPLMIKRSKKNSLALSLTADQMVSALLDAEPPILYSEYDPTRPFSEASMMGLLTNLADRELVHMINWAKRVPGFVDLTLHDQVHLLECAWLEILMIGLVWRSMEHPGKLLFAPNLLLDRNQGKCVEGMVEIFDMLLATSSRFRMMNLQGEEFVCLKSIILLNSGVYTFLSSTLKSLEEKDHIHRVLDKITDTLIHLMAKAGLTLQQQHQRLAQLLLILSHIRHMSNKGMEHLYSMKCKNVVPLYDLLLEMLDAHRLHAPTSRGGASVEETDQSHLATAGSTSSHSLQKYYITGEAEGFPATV
T3 sequence (P34972 whole entry): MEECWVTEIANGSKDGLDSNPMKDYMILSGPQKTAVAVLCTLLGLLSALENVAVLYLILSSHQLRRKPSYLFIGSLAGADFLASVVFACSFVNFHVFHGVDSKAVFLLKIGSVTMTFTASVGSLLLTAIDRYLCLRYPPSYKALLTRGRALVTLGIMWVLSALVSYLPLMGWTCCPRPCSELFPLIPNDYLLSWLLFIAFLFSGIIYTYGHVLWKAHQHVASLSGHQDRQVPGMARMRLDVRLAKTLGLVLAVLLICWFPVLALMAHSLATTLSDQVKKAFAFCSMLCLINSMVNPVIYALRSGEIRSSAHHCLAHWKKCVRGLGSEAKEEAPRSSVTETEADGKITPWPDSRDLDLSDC
T5 sequence (Q01064 whole entry): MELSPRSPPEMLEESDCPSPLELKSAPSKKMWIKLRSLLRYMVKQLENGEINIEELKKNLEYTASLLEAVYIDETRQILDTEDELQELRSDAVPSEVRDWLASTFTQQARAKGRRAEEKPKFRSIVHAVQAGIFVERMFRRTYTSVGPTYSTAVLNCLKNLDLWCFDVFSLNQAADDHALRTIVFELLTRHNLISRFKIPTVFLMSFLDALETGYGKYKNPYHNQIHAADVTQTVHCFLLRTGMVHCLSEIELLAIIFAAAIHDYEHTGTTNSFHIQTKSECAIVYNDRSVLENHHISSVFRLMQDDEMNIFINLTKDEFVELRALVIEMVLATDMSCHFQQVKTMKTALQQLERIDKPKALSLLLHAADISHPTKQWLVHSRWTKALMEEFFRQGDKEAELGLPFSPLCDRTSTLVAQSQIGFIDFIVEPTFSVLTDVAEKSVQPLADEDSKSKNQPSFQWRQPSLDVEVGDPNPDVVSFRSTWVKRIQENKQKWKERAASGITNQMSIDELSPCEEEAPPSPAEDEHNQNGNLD
T1 sequence (P29274 whole entry): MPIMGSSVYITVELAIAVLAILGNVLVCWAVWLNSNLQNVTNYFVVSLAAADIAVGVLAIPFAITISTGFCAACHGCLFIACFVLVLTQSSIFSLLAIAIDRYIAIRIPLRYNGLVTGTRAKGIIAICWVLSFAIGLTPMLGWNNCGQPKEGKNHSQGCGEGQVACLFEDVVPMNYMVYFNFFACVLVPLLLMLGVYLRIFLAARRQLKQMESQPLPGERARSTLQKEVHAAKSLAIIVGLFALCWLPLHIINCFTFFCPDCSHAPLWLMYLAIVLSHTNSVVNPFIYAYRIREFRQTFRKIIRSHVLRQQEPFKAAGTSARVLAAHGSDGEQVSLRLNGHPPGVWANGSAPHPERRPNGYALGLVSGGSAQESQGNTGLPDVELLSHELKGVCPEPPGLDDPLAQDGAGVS

| SMILES | inhibition at 10 µM (Adenosine A2A (h)) [%] | inhibition at 10 µM (Angiotensin AT2 (h)) [%] | inhibition at 10 µM (Cannabinoid CB2 (h)) [%] | % Inhibition of Control Specific Binding @ 10 μM (σ (ns)) [%] | inhibition at 10 µM (Estrogen ER (ns) (h)) [%] | inhibition at 10 µM (PDE1B (h)) [%] | % Inhibition of Control Values @ 10 μM (PDE5 (h) (ns)) [%] | IC50 ([1]; antagonist protocol, Xenopus oocytes, read-out: α1β3γ2 receptor derived IC50) [µM] | agonist activity at α1β3γ2 GABAA receptor (inward currents) ([1]; single exposure 30 sec) |
| --- | --- | --- | --- | --- | --- | --- | --- | --- | --- |
| CC1(C)C(=O)N(c2ccc(C#N)c(C(F)(F)F)c2)C(=O)N1c1ccc(C(N)=O)c(F)c1 [(MIII), 4-(3-(4-cyano-3-(trifluoromethyl)phenyl)-5,5-dimethyl-2,4-dioxoimidazolidin-1-yl)-2-fluorobenzamide] | 2 | -2 | -3 | 34 | -2 | -8 | 8 | – | – |
| CC1(C)C(=O)N(c2ccc(C#N)c(C(F)(F)F)c2)C(=S)N1c1ccc(C(=O)O)c(F)c1 [(MI), 4-(3-(4-cyano-3-(trifluoromethyl)phenyl)-5,5-dimethyl-4-oxo-2-thioxoimidazolidin-1-yl)-2-fluorobenzoic acid] | 10 | -1 | -2 | 20 | -8 | 0 | 4 | 68.3 ± 6 | – |
| CNC(=O)c1ccc(N2C(=O)N(c3ccc(C#N)c(C(F)(F)F)c3)C(=O)C2(C)C)cc1F [(MIV), 4-(3-(4-cyano-3-(trifluoromethyl)phenyl)-5,5-dimethyl-2,4-dioxoimidazolidin-1-yl)-2-fluoro-N-methylbenzamide] | 3 | 1 | 1 | 50 | -11 | -2 | 2 | – | did not evoke any detectable inward currents |
| CC1(C)C(=O)N(c2ccc(C#N)c(C(F)(F)F)c2)C(=S)N1c1ccc(C(N)=O)c(F)c1 [(MII), 4-(3-(4-Cyano-3-(trifluoromethyl)phenyl)-5,5-dimethyl-4-oxo-2-thioxoimidazolidin-1-yl)-2-fluorobenzamide] | -5 | -6 | 1 | 39 | 3 | -11 | −1 | – | – |
